Laboratory results as given in ChEMBL document CHEMBL4350953, “Inhibitor of Apoptosis Protein (IAP) Antagonists in Anticancer Agent Discovery: Current Status and Perspectives” (J Med Chem, 2019).

Key:
[1] = molecular target: T1, E3 ubiquitin-protein ligase XIAP (Homo sapiens, UniProt P98170); assay: Binding affinity to XIAP-BIR3 domain (241 to 356 residues) (unknown origin) by fluorescence polarization-based competition assay
MDA-MB-231 [2] = assay: Cytotoxicity against human MDA-MB-231 cells assessed as reduction in cell viability
Caspase-9 = molecular target: T2, Caspase-9 (Homo sapiens, UniProt P55211); assay: Inhibition of N-terminal CARD domain of caspase 9 (unknown origin)
T2 sequence (P55211 whole entry): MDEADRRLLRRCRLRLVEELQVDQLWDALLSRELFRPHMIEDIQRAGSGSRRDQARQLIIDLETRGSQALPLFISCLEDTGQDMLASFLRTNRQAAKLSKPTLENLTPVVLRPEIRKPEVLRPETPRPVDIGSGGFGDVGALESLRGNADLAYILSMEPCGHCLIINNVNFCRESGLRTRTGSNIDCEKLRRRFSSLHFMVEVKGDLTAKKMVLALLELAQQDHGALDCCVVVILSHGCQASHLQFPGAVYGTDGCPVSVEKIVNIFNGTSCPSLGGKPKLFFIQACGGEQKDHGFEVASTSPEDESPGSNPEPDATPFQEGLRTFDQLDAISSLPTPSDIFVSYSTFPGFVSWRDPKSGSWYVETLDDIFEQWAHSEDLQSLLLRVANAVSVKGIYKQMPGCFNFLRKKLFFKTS

[3] = molecular target: T3, Baculoviral IAP repeat-containing protein 2 (Homo sapiens, UniProt Q13490); assay: Induction of cIAP1 (unknown origin) degradation
MDA-MB-231 [4] = assay: Growth inhibition of human MDA-MB-231 cells; format: functional
[5] = molecular target: T3, Baculoviral IAP repeat-containing protein 2; assay: Binding affinity to cIAP1-BIR3 domain (unknown origin)
HL-60 = assay: Cytotoxicity against human HL60 cells assessed as reduction in cell viability; format: functional, cell-based
[6] = molecular target: T1, E3 ubiquitin-protein ligase XIAP; assay: Binding affinity to XIAP-BIR2/BIR3 domain (unknown origin)
[7] = molecular target: Baculoviral IAP repeat-containing protein 3 (Homo sapiens, UniProt Q13489); assay: Binding affinity to cIAP2-BIR3 domain (unknown origin)
[8] = molecular target: T1, E3 ubiquitin-protein ligase XIAP; assay: Binding affinity to XIAP-BIR2 domain (unknown origin) by fluorescence polarization-based competition assay

T1 sequence (P98170 whole entry, the tested form may be a part): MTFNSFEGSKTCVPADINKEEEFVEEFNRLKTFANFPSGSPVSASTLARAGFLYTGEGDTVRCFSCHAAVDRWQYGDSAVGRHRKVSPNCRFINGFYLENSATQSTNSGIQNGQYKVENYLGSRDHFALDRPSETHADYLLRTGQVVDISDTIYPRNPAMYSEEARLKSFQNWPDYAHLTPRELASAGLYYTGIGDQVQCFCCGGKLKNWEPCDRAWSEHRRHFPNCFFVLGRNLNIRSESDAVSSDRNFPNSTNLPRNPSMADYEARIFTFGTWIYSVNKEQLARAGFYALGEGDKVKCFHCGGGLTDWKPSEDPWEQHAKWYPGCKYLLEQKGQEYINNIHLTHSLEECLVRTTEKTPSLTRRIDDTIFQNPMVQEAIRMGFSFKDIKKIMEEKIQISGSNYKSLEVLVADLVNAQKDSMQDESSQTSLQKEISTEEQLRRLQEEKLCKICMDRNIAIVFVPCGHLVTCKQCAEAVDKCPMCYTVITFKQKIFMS
T3 sequence (Q13490 whole entry): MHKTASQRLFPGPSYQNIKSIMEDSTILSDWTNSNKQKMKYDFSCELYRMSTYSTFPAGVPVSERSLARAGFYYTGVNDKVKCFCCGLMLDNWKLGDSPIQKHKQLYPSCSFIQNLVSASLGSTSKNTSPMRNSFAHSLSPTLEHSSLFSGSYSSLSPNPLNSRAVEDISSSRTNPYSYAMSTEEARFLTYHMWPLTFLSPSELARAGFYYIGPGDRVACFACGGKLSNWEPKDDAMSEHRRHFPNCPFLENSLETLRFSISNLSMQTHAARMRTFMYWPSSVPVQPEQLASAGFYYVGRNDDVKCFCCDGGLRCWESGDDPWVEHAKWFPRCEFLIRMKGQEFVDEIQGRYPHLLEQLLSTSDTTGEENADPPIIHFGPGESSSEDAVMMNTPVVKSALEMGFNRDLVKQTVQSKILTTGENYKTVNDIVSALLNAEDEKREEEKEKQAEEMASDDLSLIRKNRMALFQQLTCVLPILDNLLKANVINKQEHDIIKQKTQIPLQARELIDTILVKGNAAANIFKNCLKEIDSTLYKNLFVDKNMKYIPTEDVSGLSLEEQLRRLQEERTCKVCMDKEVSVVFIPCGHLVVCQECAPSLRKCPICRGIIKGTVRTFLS
Sequence of Baculoviral IAP repeat-containing protein 3 (Q13489 whole entry, the tested form may be a part): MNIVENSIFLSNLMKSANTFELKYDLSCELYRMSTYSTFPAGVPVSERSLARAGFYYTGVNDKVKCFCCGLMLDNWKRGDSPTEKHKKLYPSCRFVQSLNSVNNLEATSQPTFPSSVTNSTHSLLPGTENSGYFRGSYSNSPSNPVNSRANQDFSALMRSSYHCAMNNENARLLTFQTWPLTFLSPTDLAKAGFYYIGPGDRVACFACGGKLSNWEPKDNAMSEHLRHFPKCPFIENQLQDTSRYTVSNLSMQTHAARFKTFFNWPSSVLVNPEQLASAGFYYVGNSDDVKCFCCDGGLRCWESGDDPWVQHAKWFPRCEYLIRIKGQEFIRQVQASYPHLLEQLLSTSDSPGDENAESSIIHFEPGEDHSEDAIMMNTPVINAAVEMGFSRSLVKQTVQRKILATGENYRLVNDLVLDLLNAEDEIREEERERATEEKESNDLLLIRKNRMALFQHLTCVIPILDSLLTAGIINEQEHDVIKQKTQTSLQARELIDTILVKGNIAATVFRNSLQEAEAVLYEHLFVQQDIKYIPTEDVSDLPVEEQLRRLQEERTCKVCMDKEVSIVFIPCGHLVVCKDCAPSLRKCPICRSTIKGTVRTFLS

Work on `CN[C@@H](C)C(=O)N[C@H](C(=O)N1CCC[C@H]1C(=O)N[C@H]1CCc2ccccc21)C(C)(C)C` yielded a Kd [1] of 29 nM.

`CN[C@@H](C)C(=O)N[C@H](C(=O)N1CCC[C@H]1C(=O)N[C@H]1CCCc2ccccc21)C(C)(C)C` showed an IC50 (MDA-MB-231 [2]) of 68 nM and an EC50 (Caspase-9) of 290 nM.

Compound `CN[C@@H](C)C(=O)N[C@H](C(=O)N1CCC[C@H]1C(=O)N[C@H]1c2ccccc2C[C@H]1OCC#CC#CCO[C@@H]1Cc2ccccc2[C@@H]1NC(=O)[C@@H]1CCCN1C(=O)[C@@H](NC(=O)[C@H](C)NC)C(C)(C)C)C(C)(C)C` has an EC50 [3] of 0.1 nM, a GI50 (MDA-MB-231 [4]) of less than 0.06 nM and an IC50 [5] of 15 nM.

`CN[C@@H](C)C(=O)N[C@@H](CNC(=O)c1ccc(S(=O)(=O)F)cc1)C(=O)N1CCC[C@@H]1c1cncc(Cc2ccc(F)cc2)n1` showed an IC50 [5] greater than 200 nM.

Compound `CN[C@@H](C)C(=O)N[C@H](C(=O)N1CCC[C@H]1C(=O)N[C@H]1CCCc2ccccc21)C1CCCCC1` has an IC50 (MDA-MB-231 [2]) of 13 nM and an EC50 (Caspase-9) of 310 nM.

For `CC[C@H](NC)C(=O)N[C@H](C(=O)N1C[C@H]2Cc3cc(Cl)ccc3N2C[C@H]1C(=O)N[C@H]1CCOc2ccccc21)C1CCCCC1`, the GI50 (MDA-MB-231 [4]) was 15 nM.

`CN[C@@H](C)C(=O)N[C@H](C(=O)N1CC[C@@H](Oc2ccccc2)[C@H]1C(=O)N[C@H]1CCCc2ccccc21)C(C)(C)C` showed an EC50 (Caspase-9) of 240 nM.

Compound `CCO[C@@H]1C[C@@H]2CN(C(=O)[C@@H](NC(=O)[C@H](C)NC)C3CCC(F)(F)CC3)[C@H](C(=O)N[C@H]3CCOc4ccccc43)CN2C1` has a GI50 (MDA-MB-231 [4]) of 1.8 nM and a Kd [5] of 1.3 nM.

Work on `CN[C@@H](C)C(=O)NC1CCCC[C@H]2CC[C@@H](C(=O)N[C@@H](c3ccccc3)c3cn(CCCCc4ccc(CCCCn5cc([C@@H](NC(=O)[C@@H]6CC[C@@H]7CCCC[C@H](NC(=O)[C@H](C)NC)C(=O)N76)c6ccccc6)nn5)cc4)nn3)N2C1=O` (stereo not given in full) yielded an IC50 (HL-60) of 1 nM.

`CN[C@@H](C)C(=O)N[C@H]1CCCC[C@H]2CC[C@@H](C(=O)N[C@@H](c3ccccc3)c3cn(Cc4ccccc4)nn3)N2C1=O` showed an IC50 (HL-60) of 2000 nM and an IC50 [6] of 376 nM.

`CN[C@@H](C)C(=O)N[C@H]1CCCC[C@H]2CC[C@@H](C(=O)NC(c3ccccc3)c3ccccc3)N2C1=O` was tested, and the IC50 (HL-60) was 1400 nM.

`CC[C@H](NC(=O)[C@H](C)NC)C(=O)N1C[C@@H](O)C[C@H]1Cc1c(-c2[nH]c3cc(F)ccc3c2C[C@@H]2C[C@H](O)CN2C(=O)[C@H](CC)NC(=O)[C@H](C)NC)[nH]c2cc(F)ccc12` [BIRINAPANT] showed a Kd [7] of 36 nM.

`CN[C@@H](C)C(=O)N[C@H](C(=O)N1CCC[C@H]1C(=O)Nc1snnc1-c1ccccc1)C1CCCCC1` [GDC-0152] showed a Kd [1] of 28 nM and a Kd [8] of 112 nM.
